Measured values taken from patent publication US11339130B1 (Blade Therapeutics, Inc., priority 2016, dated 2022).

Tests used:
[1] = system: Calpain activity in SH-SY5Y cells (SBDP-150); experiment: SH-SY5Y Spectrin western blot assay (SBDP-150 breakdown product, A23187-induced); assay type: cell-based; settings: Homo sapiens; Column D; SH-SY5Y cells, A23187-induced SBDP-150; read-out: SH-SY5Y Spectrin IC50
Human Calpain 1/NS1 = molecular target: T1, Human Calpain 1/NS1 (Homo sapiens, UniProt P07384); experiment: Calpain inhibition continuous fluorescence (FRET) assay, Human Calpain 1/NS1; assay type: biochemical; settings: Column A; read-out: Human Calpain 1/NS1 IC50
T1 sequence (P07384 1-714): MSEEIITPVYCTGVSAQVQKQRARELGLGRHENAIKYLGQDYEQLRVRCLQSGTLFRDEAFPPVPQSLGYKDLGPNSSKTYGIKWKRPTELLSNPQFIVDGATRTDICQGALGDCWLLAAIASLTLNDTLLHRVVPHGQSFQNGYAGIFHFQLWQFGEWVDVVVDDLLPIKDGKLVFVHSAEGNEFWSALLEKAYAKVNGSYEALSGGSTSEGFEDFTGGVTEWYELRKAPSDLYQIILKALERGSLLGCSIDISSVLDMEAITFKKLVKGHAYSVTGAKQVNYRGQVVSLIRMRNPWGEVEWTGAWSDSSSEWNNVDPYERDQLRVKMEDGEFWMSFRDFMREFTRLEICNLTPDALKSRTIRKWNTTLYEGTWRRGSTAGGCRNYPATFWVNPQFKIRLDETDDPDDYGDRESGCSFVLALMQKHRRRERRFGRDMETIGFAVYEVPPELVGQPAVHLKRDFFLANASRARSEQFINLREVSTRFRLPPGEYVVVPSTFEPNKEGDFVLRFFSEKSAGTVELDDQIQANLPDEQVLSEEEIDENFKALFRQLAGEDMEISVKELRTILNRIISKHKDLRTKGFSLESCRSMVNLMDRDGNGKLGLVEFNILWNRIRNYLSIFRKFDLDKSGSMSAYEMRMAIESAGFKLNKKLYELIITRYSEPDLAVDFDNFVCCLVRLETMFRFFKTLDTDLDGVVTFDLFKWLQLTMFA
T1 sequence (P04632 1-268 partner): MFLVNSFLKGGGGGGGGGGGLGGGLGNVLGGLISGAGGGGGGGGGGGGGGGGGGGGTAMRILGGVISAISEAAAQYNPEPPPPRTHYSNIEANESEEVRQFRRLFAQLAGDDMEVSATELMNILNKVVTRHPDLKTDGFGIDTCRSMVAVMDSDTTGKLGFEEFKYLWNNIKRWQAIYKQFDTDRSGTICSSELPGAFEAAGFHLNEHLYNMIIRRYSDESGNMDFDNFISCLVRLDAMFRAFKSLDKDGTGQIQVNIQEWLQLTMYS
Summary of the method: (§1)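 Fluorescence increase from the cleaved 5-FAM/QXL 520 substrate, read at 490/520 nm, gave activity. Calcium was supplied with the substrate to activate the enzyme in situ after a 25C enzyme-inhibitor preincubation, and IC50s were fit from initial slopes.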

Human Calpain 9/NS1 = molecular target: T2, Human Calpain 9/NS1 (Homo sapiens, UniProt O14815); experiment: Calpain inhibition continuous fluorescence (FRET) assay, Human Calpain 9/NS1; assay type: biochemical; settings: Column C; read-out: Human Calpain 9/NS1 IC50
T2 sequence (O14815 1-690): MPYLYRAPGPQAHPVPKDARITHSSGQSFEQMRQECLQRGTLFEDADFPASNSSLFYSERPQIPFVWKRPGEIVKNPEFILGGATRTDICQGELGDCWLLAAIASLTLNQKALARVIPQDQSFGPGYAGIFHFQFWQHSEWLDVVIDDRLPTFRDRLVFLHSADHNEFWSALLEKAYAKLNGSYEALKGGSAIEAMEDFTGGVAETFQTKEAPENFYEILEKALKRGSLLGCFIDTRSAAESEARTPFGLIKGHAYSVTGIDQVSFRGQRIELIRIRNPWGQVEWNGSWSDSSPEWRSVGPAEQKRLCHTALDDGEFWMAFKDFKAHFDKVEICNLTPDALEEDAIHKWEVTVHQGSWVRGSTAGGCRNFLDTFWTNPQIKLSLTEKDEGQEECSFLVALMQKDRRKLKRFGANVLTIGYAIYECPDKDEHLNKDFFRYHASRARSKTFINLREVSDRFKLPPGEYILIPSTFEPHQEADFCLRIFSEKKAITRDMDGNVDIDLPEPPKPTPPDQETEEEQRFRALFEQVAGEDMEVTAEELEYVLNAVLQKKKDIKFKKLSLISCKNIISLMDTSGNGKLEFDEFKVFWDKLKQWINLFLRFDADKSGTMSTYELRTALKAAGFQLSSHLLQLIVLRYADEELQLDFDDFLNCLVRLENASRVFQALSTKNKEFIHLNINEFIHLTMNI
T2 sequence (P04632 1-268 partner): T1 sequence (P04632 1-268 partner)
Summary of the method: as §1

[2] = system: Calpain activity in SH-SY5Y cells; experiment: SH-SY5Y + AMC fluorescence assay (Suc-LLVY-AMC substrate); assay type: cell-based; settings: Column E, read-out: SH-SY5Y + AMC IC50
Human Calpain 2/NS1 = molecular target: T3, Human Calpain 2/NS1 (Homo sapiens, UniProt P17655); experiment: Calpain inhibition continuous fluorescence (FRET) assay, Human Calpain 2/NS1; assay type: biochemical; settings: Column B; read-out: Human Calpain 2/NS1 IC50
T3 sequence (P17655 1-700): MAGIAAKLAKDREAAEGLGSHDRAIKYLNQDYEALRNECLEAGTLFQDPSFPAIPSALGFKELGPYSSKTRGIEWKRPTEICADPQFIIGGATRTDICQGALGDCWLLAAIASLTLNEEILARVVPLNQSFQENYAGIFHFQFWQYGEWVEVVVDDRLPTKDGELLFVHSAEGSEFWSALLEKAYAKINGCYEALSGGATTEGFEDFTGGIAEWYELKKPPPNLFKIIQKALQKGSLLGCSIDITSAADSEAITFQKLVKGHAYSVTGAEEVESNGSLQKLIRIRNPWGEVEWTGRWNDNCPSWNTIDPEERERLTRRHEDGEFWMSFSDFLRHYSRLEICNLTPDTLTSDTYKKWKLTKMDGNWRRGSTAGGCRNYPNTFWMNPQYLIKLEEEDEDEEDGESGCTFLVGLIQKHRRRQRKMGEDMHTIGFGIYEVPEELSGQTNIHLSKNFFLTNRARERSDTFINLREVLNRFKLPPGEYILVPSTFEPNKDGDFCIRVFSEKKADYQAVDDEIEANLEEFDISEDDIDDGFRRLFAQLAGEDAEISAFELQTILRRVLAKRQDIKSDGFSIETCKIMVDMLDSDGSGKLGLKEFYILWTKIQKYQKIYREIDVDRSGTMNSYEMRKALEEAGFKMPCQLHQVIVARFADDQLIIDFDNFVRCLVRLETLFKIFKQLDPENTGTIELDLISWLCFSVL
T3 sequence (P04632 1-268 partner): T1 sequence (P04632 1-268 partner)
Summary of the method: as §1

SMILES	IC50 [1]	IC50 (Human Calpain 1/NS1)	IC50 (Human Calpain 9/NS1)	IC50 [2]	IC50 (Human Calpain 2/NS1)
Cc1cc(C(=O)N[C@@H](Cc2ccccc2)C(=O)C(N)=O)n(-c2ccc(-c3ccccc3C)cc2)n1 [Compound 202, (S)—N-(4-amino-3,4-dioxo-1-phenylbutan-2-yl)-3-methyl-1-(2′-methyl-[1,1′-biphenyl]-4-yl)-1H-pyrazole-5-carboxamide]	10 to 25 µM	< 3 µM	< 3 µM	> 25 µM	< 3 µM
NC(=O)C(=O)[C@H](Cc1ccccc1)NC(=O)c1sc(C2CC2)nc1-c1ccccc1 [Compound 207, (S)—N-(4-amino-3,4-dioxo-1-phenylbutan-2-yl)-2-cyclopropyl-4-phenylthiazole-5-carboxamide]	10 to 25 µM	< 3 µM	< 3 µM	< 10 µM	< 3 µM
Cc1cc(C(=O)N[C@@H](Cc2ccccc2)C(=O)C(N)=O)n(-c2ccc(C#N)cn2)n1 [Compound 208]	< 10 µM	< 3 µM	< 3 µM	> 25 µM	< 3 µM
Cc1cc(C(=O)N[C@@H](Cc2ccccc2)C(=O)C(N)=O)n(-c2ncc(-c3ccccc3)o2)n1 [Compound 212, (S)—N-(4-amino-3,4-dioxo-1-phenylbutan-2-yl)-3-methyl-1-(5-phenyloxazol-2-yl)-1H-pyrazole-5-carboxamide]	10 to 25 µM	< 3 µM	< 3 µM	< 10 µM	< 3 µM
Cc1cc(C(=O)N[C@@H](Cc2ccccc2)C(=O)C(N)=O)n(-c2ccc(-c3cccc(F)c3)cc2)n1 [Compound 216, (S)—N-(4-amino-3,4-dioxo-1-phenylbutan-2-yl)-1-(3′-fluoro-[1,1′-biphenyl]-4-yl)-3-methyl-1H-pyrazole-5-carboxamide]	< 10 µM	< 3 µM	< 3 µM	> 25 µM	< 3 µM
Cc1cc(C(=O)N[C@@H](Cc2ccccc2)C(=O)C(N)=O)n(-c2ccc(-c3ccccc3F)cc2)n1 [Compound 217, (S)—N-(4-amino-3,4-dioxo-1-phenylbutan-2-yl)-1-(2′-fluoro-[1,1′-biphenyl]-4-yl)-3-methyl-1 h-pyrazole-5-carboxamide]	< 10 µM	< 3 µM	< 3 µM	> 25 µM	< 3 µM
Cc1cccc(-c2ccc(-n3nc(C)cc3C(=O)N[C@@H](Cc3ccccc3)C(=O)C(N)=O)cc2)c1 [Compound 218, (S)—N-(4-amino-3,4-dioxo-1-phenylbutan-2-yl)-3-methyl-1-(3′-methyl-[1,1′-biphenyl]-4-yl)-1H-pyrazole-5-carboxamide]	10 to 25 µM	< 3 µM	< 3 µM	> 25 µM	< 3 µM
Cc1cc(C(=O)N[C@@H](Cc2ccccc2)C(=O)C(N)=O)c(-c2ccccc2)s1 [Compound 222, (S)—N-(4-amino-3,4-dioxo-1-phenylbutan-2-yl)-5-methyl-2-phenylthiophene-3-carboxamide]	10 to 25 µM	< 3 µM	< 3 µM	> 25 µM	< 3 µM
Cc1cnn(-c2ccccc2)c1C(=O)N[C@@H](Cc1ccccc1)C(=O)C(N)=O [Compound 223, (S)—N-(4-amino-3,4-dioxo-1-phenylbutan-2-yl)-4-methyl-1-phenyl-1H-pyrazole-5-carboxamide]	10 to 25 µM	< 3 µM	< 3 µM	> 25 µM	< 3 µM
CCc1nc(-c2ccccc2)c(C(=O)N[C@@H](Cc2ccccc2)C(=O)C(N)=O)o1 [Compound 226, (S)—N-(4-amino-3,4-dioxo-1-phenylbutan-2-yl)-2-ethyl-4-phenyloxazole-5-carboxamide]	< 10 µM	< 3 µM	< 3 µM	< 10 µM	< 3 µM
CCOCc1ccc(-n2nc(C)cc2C(=O)N[C@@H](Cc2ccccc2)C(=O)C(N)=O)cc1 [Compound 227, (S)—N-(4-amino-3,4-dioxo-1-phenylbutan-2-yl)-1-(4-(ethoxymethyl)phenyl)-3-methyl-1H-pyrazole-5-carboxamide]	< 10 µM	< 3 µM	< 3 µM	> 25 µM	< 3 µM
Cc1cc(C(=O)N[C@@H](Cc2ccccc2)C(=O)C(N)=O)n(-c2ccc(COCc3ccccc3)cc2)n1 [Compound 228, (S)—N-(4-amino-3,4-dioxo-1-phenylbutan-2-yl)-1-(4-((benzyloxy)methyl)phenyl)-3-methyl-1H-pyrazole-5-carboxamide]	< 10 µM	< 3 µM	< 3 µM	> 25 µM	< 3 µM
CCOCc1cccc(-n2nc(C)cc2C(=O)N[C@@H](Cc2ccccc2)C(=O)C(N)=O)c1 [Compound 229, (S)—N-(4-amino-3,4-dioxo-1-phenylbutan-2-yl)-1-(3-(ethoxymethyl)phenyl)-3-methyl-1H-pyrazole-5-carboxamide]	< 10 µM	< 3 µM	< 3 µM	< 10 µM	< 3 µM
Cc1cc(C(=O)N[C@@H](Cc2ccccc2)C(=O)C(N)=O)n(-c2cccc(COCc3ccccc3)c2)n1 [Compound 230, (S)—N-(4-amino-3,4-dioxo-1-phenylbutan-2-yl)-1-(3-((benzyloxy)methyl)phenyl)-3-methyl-1H-pyrazole-5-carboxamide]	< 10 µM	< 3 µM	< 3 µM	< 10 µM	< 3 µM
Cc1cc(C(=O)N[C@@H](Cc2ccccc2)C(=O)C(N)=O)n(-c2cccc(COc3ccccc3)c2)n1 [Compound 231, (S)—N-(4-amino-3,4-dioxo-1-phenylbutan-2-yl)-3-methyl-1-(3-(phenoxymethyl)phenyl)-1H-pyrazole-5-carboxamide]	> 25 µM	< 3 µM	< 3 µM	> 25 µM	< 3 µM
